Assay results: patent publication US12357619B2, “Noradrenergic and specific serotonergic anxiolytic and antidepressant, method for the production and use thereof” (ALLA CHEM, LLC, priority 2020, dated 2025)
Like-named read-outs stand apart in the source and are kept apart here.

Experiments:
Adrenergic α1A = target: T1, Adrenergic α1A (Homo sapiens, UniProt P35348); assay: Receptor activities, Ki (Table 1); type: binding
T1 sequence (P35348 1-466): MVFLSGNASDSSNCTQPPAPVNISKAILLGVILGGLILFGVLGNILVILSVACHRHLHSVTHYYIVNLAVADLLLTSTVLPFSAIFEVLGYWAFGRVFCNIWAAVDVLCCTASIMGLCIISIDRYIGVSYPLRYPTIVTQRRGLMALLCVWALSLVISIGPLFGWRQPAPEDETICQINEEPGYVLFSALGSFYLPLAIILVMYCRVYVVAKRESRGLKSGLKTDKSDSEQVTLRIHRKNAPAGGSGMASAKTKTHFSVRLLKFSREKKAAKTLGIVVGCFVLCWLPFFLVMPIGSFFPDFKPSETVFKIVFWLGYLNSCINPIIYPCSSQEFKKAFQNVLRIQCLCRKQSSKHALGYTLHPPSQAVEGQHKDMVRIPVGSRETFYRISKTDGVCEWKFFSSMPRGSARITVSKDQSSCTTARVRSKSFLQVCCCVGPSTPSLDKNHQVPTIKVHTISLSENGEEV

healthy volunteers = assay: Safety, single oral administration of capsules in healthy volunteers (Example 10); type: in vivo, human
Protocol: Example 10. Clinical study of the safety of the oral drug of this invention. An open-label clinical trial of the pharmacokinetics of the antipsychotic drug made as a pharmaceutical composition of this invention in capsules, was conducted with a single oral administration in 32 healthy volunteers at doses of 2 mg/day (cohort 1, 8 volunteers), 4 mg/day (cohort 1, 8 volunteers), 10 mg/day (cohort 1, 8 volunteers), and 20 mg/day (cohort 1, 8 volunteers), expressed as base A, in accordance with the recommendations of “Good clinical practice (GCP)” on physically and mentally healthy men aged 20-50 years with a body mass index of […].

[1] = Pharmacokinetics, single and multiple dosing of capsules in volunteers (Example 11); type: in vivo, human; details: for half-life / Tmax: human, in vivo, oral
Protocol: Example 11. Safety study of increasing doses of the oral drug of this invention made as a pharmaceutical composition of this invention in capsules. Clinical safety study of increasing doses of the antipsychotic drug made as a pharmaceutical composition of this invention in capsules for single and multiple dosing. The study covered one cohort of 4 volunteers taking antipsychotic drug once at a dose of 20 mg, and then at the same dose 2 times a day for 4 days. Based on the three-week safety data obtained in the 20-mg cohort taking antipsychotic drug twice a day, the independent safety data monitoring Committee took a decision to involve a second cohort of 4 volunteers, in which the antipsychotic drug under test was taken once at a dose of 20 mg and then 3 times a day for 4 days at the same dose.

[2] = test system: people with generalized anxiety disorder (GAD); assay: Randomized double-blind placebo-controlled GAD study, Hamilton depression scale (HAMD); type: in vivo, human; details: after 8 weeks
Protocol: (§1) Example 12. Efficacy and safety study of the oral drug of this invention made as a pharmaceutical composition of this invention in capsules. […] During the study, 3 scheduled visits were conducted in Week 2, Week 4, and Week 8 to assess the effectiveness and safety of the therapy as well as drug inventory and administration. During all of those visits, the patient's diary was checked, a drug inventory was made and the patients' compliance was assessed. In addition, adverse events, concomitant therapy, and vital signs were evaluated, urine drug screen was performed, and assessments using Hamilton Anxiety Rating Scale (HARS), Hamilton Depression Scale (HAMD), Clinical Global Impression-Severity (CGI-S), Clinical Global Impression-Improvement (CGI-I), and Visual Analog Scale (VAS) were made; women of child-bearing potential will take a urine pregnancy test. Also, during visits at Week 4 and Week 8 a physical examination was performed, body weight was measured, an ECG was performed in 12 leads and blood and urine samples were obtained for laboratory tests, namely: urinalysis and biochemical blood analysis, PK analysis before and 1 hour after taking the study drug (SD), and urinalysis. At Week 4, a blood sample was also obtained for genotyping by CYP2D6. […] During this time, a possible development of SD withdrawal syndrome against the background of placebo was evaluated. […]

[3] = test system: people with generalized anxiety disorder (GAD); assay: Randomized double-blind placebo-controlled GAD study, clinical global impression-improvement (CGI-I); type: in vivo, human; details: after 8 weeks
Protocol: as §1

Adrenergic α2B = target: T2, Adrenergic α2B (Homo sapiens, UniProt P18089); assay: Receptor activities, Ki (Table 1); type: binding
T2 sequence (P18089 1-450): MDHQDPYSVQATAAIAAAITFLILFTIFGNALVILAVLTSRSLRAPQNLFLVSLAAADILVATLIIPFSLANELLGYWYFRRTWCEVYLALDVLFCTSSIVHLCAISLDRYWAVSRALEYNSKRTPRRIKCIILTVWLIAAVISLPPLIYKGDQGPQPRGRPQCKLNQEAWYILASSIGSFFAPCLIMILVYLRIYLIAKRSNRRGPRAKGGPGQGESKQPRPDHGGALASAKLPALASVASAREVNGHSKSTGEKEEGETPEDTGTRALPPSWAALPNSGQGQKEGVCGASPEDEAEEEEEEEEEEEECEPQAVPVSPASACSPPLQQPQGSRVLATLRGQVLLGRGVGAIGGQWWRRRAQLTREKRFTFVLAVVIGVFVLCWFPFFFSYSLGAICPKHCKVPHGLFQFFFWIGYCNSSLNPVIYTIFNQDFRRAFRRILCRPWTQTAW

[4] = test system: people with generalized anxiety disorder (GAD); assay: Randomized double-blind placebo-controlled GAD study, clinical global impression-severity (CGI-S); type: in vivo, human; details: after 8 weeks
Protocol: as §1

[5] = single doses of 2, 4, 10, and 20 mg, healthy volunteers

With `Cc1ccc2c(c1)c1c(n2CCc2ccccc2)CCN(C)C1.Cl` [A•HCl, 2,8-dimethyl-5-(2-phenylethyl)-2,3,4,5-tetrahydro-1H-pyrido[4,3-b]indole hydrochloride] the Ki (Adrenergic α1A) was 30.2 nM, the Side effects observed (healthy volunteers; 20-mg cohort, single dose) was “drowsiness, agitation and paresthesia” and the “Effect on the parameters of plasma and urine” value (healthy volunteers; [5]) was “neither significantly affect the parameters of plasma and urine”. The Tolerability (healthy volunteers; [5]) was “well tolerated”, the “Accumulation factor (Fc)” value ([1]; 40-mg cohort) was 2.5 and the “Accumulation factor (Fc)” value ([1]; 60-mg cohort) was 2.1. For the same compound, the half-life ([1]; 20 mg, single dose, 40-mg cohort) was 10.3 ± 5.4 h, the Tmax ([1]; 20 mg, single dose, 40-mg cohort, read-out: Tmax, median) was 0.75 h and the half-life ([1]; 20 mg, single dose, 60-mg cohort) was 7.3 ± 2.6 h. For the same compound, the Tmax ([1]; 20 mg, single dose, 60-mg cohort, read-out: Tmax, median) was 2.3 h, the Tmax ([1]; 20 mg, single dose, majority of volunteers, read-out: Tmax, variation) was 0.5 to 4 h and the Tmax ([1]; 40 mg/day, repeated doses, 40-mg cohort, read-out: Tmax, median) was 0.38 h. The Tmax ([1]; 60 mg/day, repeated doses, 60-mg cohort, read-out: Tmax, median) was 1 h, the “Time to stabilization of the residual concentration after the start of regular drug administration” value ([1]; multiple dosing) was 1 to 2 days and the “Tmax, variability range” value ([1]; repeated doses) was 0.3 to 4 h. The “Increase in T1/2 after repeated administration, on an average” value ([1]; repeated vs single administration) was 1.4 times, the “HAMD average change (standard error)” value ([2]; 40 mg, N = 42, average at Week 0 10.9) was −5.2 (0.57) and the “HAMD average change (standard error)” value ([2]; 60 mg, N = 44, average at Week 0 10.9) was −4.4 (0.56). For the same compound, the “CGI-I average change (standard error)” value ([3]; 40 mg, N = 42, average at Week 0 4.00) was −1.63 (0.14), the “CGI-I average change (standard error)” value ([3]; 60 mg, N = 44, average at Week 0 4.03) was −1.68 (0.14) and the Ki (Adrenergic α2B) was 0.41 nM. For the same compound, the “CGI-S average change (standard error)” value ([4]; 40 mg, N = 42, average at Week 0 4.24) was −1.34 (0.19) and the “CGI-S average change (standard error)” value ([4]; 60 mg, N = 44, average at Week 0 4.28) was −1.21 (0.19).
